Data from patent US20070134660A1, “Methods for identifying modulators of kinesin activity” (ROSETTA INPHARMATICS LLC, priority 2003, published 2007).

Columns and labels:
MCAK (SEQ ID NO:22) = MCAK (SEQ ID NO:22) (Homo sapiens, UniProt Q99661); assay: MCAK motor domain ATPase assay; assay type: biochemical; settings: read-out: uKHC, nKHC, CENP-E, MKLP-1, KIF1B, MCAK ATPase IC50
A2780 cells = assay: alamarBlue cell growth assay, candidate KIF14 modulators in A2780 cells; assay type: cell-based; settings: Homo sapiens, 48 hour incubation; for EC50: read-out: EC50 (nM), Growth Inhibition in A2780 Cells; for inhibition at 0.0137 µM: [Compound] 13.7 nM; for inhibition at 0.0141 µM: [Compound] 14.1 nM; for inhibition at 0.123 µM: [Compound] 123 nM; for inhibition at 0.37 µM: [Compound] 370 nM; for inhibition at 1.111 µM: [Compound] 1111 nM; for inhibition at 3.333 µM: [Compound] 3333 nM; for inhibition at 10 µM: [Compound] 10000 nM
Protocol: alamarBlue™ Assay for Cell Growth: The alamarBlue™ assay is a measure of cellular respiration and is used as a measure of live cell number. The internal environment of the proliferating cell is more reduced than that of non-proliferating cells. Specifically, the ratios of NADPH/NADP, FADH/FAD, FMNH/FMN, and NADH/NAF increase during proliferation. alamarBlue™ can be reduced by these metabolic intermediates and, therefore, can be used to monitor cell proliferation.
A2780 cells were plated at a density of 4000/cells per well in RPMI1640 (containing 10% FBS, 1% Pen/Strep, 0.01 mg/ml insulin) in a 96-well plate (Costar, Cat. No. 3606) 16 hours prior to treatment. A compound dilution plate was prepared from a 10 mM stock solution using a 3-fold serial dilution series in DMSO. A 1.2 microliter aliquot of each concentration was transferred into 0.6 ml of medium. A 100 microliter aliquot of each concentration was added to the appropriate wells already containing 100 microliters of compound-free medium. After a 48 hour incubation at 37° C., 20 microliters of alamarBlue™ was added to each well (10% vol/vol). After an additional 6 hour incubation at 37° C., the plates were read on a spectrofluorimeter SpectroMax Gemini (excitation 544 nm, emission 590 nm). The background value (averaged from wells with no cells) was subtracted from each reading.

[1] = biological target: T1, KIF14 V342-K720 MD protein (SEQ ID NO:4) (Homo sapiens, UniProt Q15058); assay: KIF14 motor domain microtubule-dependent ATPase assay (Quinaldine Red); assay type: biochemical; settings: n = 2
T1 construct: made in house; host or cells: E. coli BL21 (DE3)
T1 sequence (Q15058 with tags, fused parts or gaps): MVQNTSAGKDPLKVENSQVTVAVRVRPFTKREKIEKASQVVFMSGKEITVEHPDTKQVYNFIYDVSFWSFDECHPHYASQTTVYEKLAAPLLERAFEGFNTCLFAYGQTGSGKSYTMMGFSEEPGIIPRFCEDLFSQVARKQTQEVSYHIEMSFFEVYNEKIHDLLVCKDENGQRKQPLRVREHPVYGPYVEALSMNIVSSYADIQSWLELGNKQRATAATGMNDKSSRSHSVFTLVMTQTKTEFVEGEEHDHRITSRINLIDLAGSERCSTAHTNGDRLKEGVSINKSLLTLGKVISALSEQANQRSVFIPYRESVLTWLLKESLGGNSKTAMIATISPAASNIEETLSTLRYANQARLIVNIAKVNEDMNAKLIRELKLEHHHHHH
Protocol: KIF14 Motor Domain Assay: KIF14 MDs were assayed for microtubule (MT)-dependent ATP hydrolysis by measuring the rate of inorganic phosphate (Pi) release using the dye Quinaldine Red, which absorbs light of 540 nm when bound to Pi. Assays (50 microliters) contained 50 mM K-PIPES pH 6.9 (which contains 90 mM KCl), 1 mM EGTA pH 8.0, 1 mM DTT, 100 micrograms/mL BSA, 2 mM MgCl2, 1 mM Na-ATP pH 7.0, 0.25-5 micromolar MT (which contain equimolar amounts of Taxol®), and 20-200 nM KIF14 MD enzyme. Reactions were initiated by the addition of enzyme and allowed to proceed at room temperature until they were quenched at regular time intervals by the addition of 50 microliters of 1.8 M KCl, 50 mM EDTA. To this was added 150 microliters of the Quinaldine Red dye solution (0.07 mg/mL quinaldine red, 0.09% polyvinyl alcohol, 4.1 mM ammonium molybdate, and 380 mM H2SO4). After 10 min incubation at room temperature, absorbance at 540 nm was read on a Molecular Devices Microtiter plate reader. Rates were calculated using the linear (steady-state) phase of the reaction.
Suitability of K14 Motor Domains for high-throughput screening: The motor domain assay was as described above, using 50 mM MES pH 6.0, 20 mM added KCl, 0.5 micromolar MTs, a temperature of 37° C., and varying enzyme concentration from 0 to 10 nM. The signal to background ratio, calculated as the amount of Pi formed after a 90 minute incubation in the presence of enzyme relative to in the absence of enzyme, was determined using different concentrations of the V342-K720 motor domain (SEQ ID NO:4), and is shown in Table 9. A high enough signal over background was obtained at low enzyme concentrations to allow high-through-put screening (HTS). Moreover, the V342-K720 motor domain (SEQ ID NO:4) was stable in the reaction for at least 90 minutes.
Screen for KIF14 Modulators: The ATPase assay described in EXAMPLE 7, as optimized in EXAMPLE 8, was used to screen for compounds that modulated the activity of the KIF14 V342-K720 MD protein (SEQ ID NO:4).

CENP-E (SEQ ID NO:19) = biological target: T2, CENP-E (SEQ ID NO:19) (Homo sapiens, UniProt Q02224); assay: CENP-E motor domain ATPase assay; assay type: biochemical; settings: read-out: uKHC, nKHC, CENP-E, MKLP-1, KIF1B, MCAK ATPase IC50
T2 construct: His6 (printed only as 'H')
T2 sequence (Q02224 with tags, fused parts or gaps): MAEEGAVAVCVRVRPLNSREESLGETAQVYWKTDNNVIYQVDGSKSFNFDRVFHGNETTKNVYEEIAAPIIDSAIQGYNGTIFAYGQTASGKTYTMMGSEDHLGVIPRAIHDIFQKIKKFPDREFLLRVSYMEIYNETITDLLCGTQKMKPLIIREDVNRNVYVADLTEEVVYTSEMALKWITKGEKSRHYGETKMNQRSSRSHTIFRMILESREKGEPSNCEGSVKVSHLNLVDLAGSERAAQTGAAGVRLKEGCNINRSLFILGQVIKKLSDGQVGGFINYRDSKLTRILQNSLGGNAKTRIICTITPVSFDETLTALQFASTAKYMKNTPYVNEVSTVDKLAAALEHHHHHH

Sequence of MCAK (SEQ ID NO:22) (Q99661 183-646): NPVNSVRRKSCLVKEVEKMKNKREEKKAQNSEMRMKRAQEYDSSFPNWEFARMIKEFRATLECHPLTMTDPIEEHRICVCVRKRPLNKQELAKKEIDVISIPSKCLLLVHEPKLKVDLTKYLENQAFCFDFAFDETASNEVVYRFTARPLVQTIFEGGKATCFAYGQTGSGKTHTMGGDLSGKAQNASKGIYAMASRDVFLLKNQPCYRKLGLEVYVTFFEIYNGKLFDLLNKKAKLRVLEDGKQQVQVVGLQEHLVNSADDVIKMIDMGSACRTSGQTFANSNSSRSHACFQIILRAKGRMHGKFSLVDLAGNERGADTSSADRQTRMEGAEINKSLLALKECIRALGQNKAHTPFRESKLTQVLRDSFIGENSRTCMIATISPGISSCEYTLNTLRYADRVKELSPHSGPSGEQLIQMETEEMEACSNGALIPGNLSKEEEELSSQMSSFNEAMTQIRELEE

| IC50 (MCAK (SEQ ID NO:22)) | EC50 (A2780 cells) | IC50 [1] | IC50 (CENP-E (SEQ ID NO:19)) | SMILES | inhibition at 0.0137 µM (A2780 cells) | inhibition at 0.0141 µM (A2780 cells) | inhibition at 0.123 µM (A2780 cells) | inhibition at 0.37 µM (A2780 cells) | inhibition at 1.111 µM (A2780 cells) | inhibition at 3.333 µM (A2780 cells) | inhibition at 10 µM (A2780 cells) |
| --- | --- | --- | --- | --- | --- | --- | --- | --- | --- | --- | --- |
| > 40 µM | 3600 nM | 0.076 µM | > 40 µM | NC(=S)N/N=C/c1ccc(C2CCCCC2)cc1 [compound 3, 4-cyclohexylbenzaldehyde thiosemicarbazone] | -5.3% | -8.1% | -10.4% | 7.8% | 6% | 39.8% | 107% |
| > 40 µM | 7980 nM | 0.054 µM | > 40 µM | CC(C)c1ccc(/C=N/NC(N)=S)cc1[N+](=O)[O-] [compound 4, 4-isopropyl-3-nitrobenzaldehyde thiosemicarbazone] | -7% | -4% | -9.2% | 4.4% | 7.5% | 25% | 61.8% |
| > 40 µM |  | 0.895 µM | > 40 µM | CC(C)c1ccc(/C=N/NC(N)=S)cc1 [compound 2, 4-isopropylbenzaldehyde thiosemicarbazone] |  |  |  |  |  |  |  |

| SMILES | IC50 (MCAK (SEQ ID NO:22)) | EC50 (A2780 cells) | IC50 [1] | IC50 (CENP-E (SEQ ID NO:19)) | inhibition at 0.0137 µM (A2780 cells) | inhibition at 0.0141 µM (A2780 cells) | inhibition at 0.123 µM (A2780 cells) | inhibition at 0.37 µM (A2780 cells) | inhibition at 1.111 µM (A2780 cells) | inhibition at 3.333 µM (A2780 cells) | inhibition at 10 µM (A2780 cells) |
| --- | --- | --- | --- | --- | --- | --- | --- | --- | --- | --- | --- |
| NC(=S)N/N=C\c1ccc(-c2ccccc2)cc1 [compound 1, 1,1′-biphenyl-4-carbaldehyde thiosemicarbazone] | > 40 µM | > 10000 nM | 0.182 µM | > 40 µM | -4.5% | 11.6% | -10.3% | 19% | 18.7% | 23.6% | 31.3% |
